From patent publication US10696648B2, “Inhibitors of indoleamine 2,3-dioxygenase and methods of their use” (BRISTOL-MYERS SQUIBB COMPANY, priority 2016, dated 2020)

Biological target: T1, human IDO1 (Homo sapiens, UniProt P14902)
T1 construct: expressed in transfected cells
Assay: HEK293 cells stably expressing human IDO1, IDO inhibition assay (kynurenine, Ehrlich reagent)
Assay type: cell-based
Details: 20 hours incubation, absorbance at 490 nm, read-out: HEK Human IDO-1 Bio Activity (IDO IC50)
Procedure: HEK293 cells were transfected with a pCDNA-based mammalian expression vector harboring human IDO1 cDNA (NM 002164.2) by electroporation. They were cultured in medium (DMEM with 10% FBS) containing 1 mg/ml G418 for two weeks. Clones of HEK293 cells that stably expressed human IDO1 protein were selected and expanded for IDO inhibition assay. The human IDO1/HEK293 cells were seeded at 10,000 cells per 50 μL per well with RPMI/phenol red free media contains 10% FBS in a 384-well black wall clear bottom tissue culture plate (Matrix Technologies LLC) 100 nL of certain concentration of compound was then added to each well using ECHO liquid handling systems. The cells were incubated for 20 hours in 37° C. incubator with 5% CO2. The compound treatments were stopped by adding trichloroacetic acid (Sigma-Aldrich) to a final concentration at 0.2%. The cell plate was further incubated at 50° C. for 30 minute. The equal volume supernatant (20 μL) and 0.2% (w/v) Ehrlich reagent (4-dimethylaminobenzaldehyde, Sigma-Aldrich) in glacial acetic acid were mixed in a new clear bottom 384-well plate. This plate was then incubated at room temperature for 30 minute. The absorbance at 490 nm was measured on Envision plate reader. Compound IC50 values were calculated using the counts of 500 nM of a reference standard treatment as one hundred percent inhibition, and counts of no compound but DMSO treatment as zero percent inhibition.

T1 sequence (P14902 whole entry): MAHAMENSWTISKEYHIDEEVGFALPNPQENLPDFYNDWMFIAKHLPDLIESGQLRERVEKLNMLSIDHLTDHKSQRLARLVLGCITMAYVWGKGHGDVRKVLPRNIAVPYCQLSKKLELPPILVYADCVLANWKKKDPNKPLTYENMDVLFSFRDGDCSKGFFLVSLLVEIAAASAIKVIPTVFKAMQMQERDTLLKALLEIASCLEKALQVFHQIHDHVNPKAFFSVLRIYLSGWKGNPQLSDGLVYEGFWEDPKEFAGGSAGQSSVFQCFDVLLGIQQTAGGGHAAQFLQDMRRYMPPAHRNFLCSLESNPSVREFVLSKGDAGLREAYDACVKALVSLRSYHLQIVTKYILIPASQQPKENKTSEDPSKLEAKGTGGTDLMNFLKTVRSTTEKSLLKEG

Row | IC50 [nM] | Structure (SMILES)
1 | < 100 | C[C@@H](NC(=O)N(Cc1ccc(CC(=O)O)cc1)[C@H]1CC[C@H](c2ccnc3ccc(F)cc32)CC1)c1ccc(F)cc1 [Example 41, 2-(4-((3-((R)-1-(4-fluorophenyl)ethyl)-1-((1 r,4R)-4-(6-fluoroquinolin-4-yl)cyclohexyl)ureido)methyl)phenyl)acetic Acid]
2 | < 100 | COc1ccc(CN(C(=O)NC2CCCCC2)[C@H]2CC[C@H](c3ccccc3)CC2)cc1 [Example 43, 3-cyclohexyl-1-(4-methoxybenzyl)-1-((1r,4r)-4-phenylcyclohexyl)urea]
3 | < 1000 | COc1ccc(CN(C(=O)NC2CCCC2)C2CCC(c3ccccc3)CC2)cc1 (stereo not shown) [Example 44, 3-cyclopentyl-1-(4-methoxybenzyl)-1-((1r,4r)-4-phenylcyclo-hexyl)urea]
4 | < 1000 | COc1ccc(CN(C(=O)NC2CC2)C2CCC(c3ccccc3)CC2)cc1 (stereo not shown) [Example 45, 3-cyclopropyl-1-(4-methoxybenzyl)-1-((1r,4r)-4-phenylcyclo-hexyl)urea]
